The results in this text go back to patent US20030096782A1, “Expression profiling in the intact human heart” (The Regents of the University of Colorado, priority 2001, published 2003).

The subject of the experiment is subjects with idiopathic dilated cardiomyopathy (IDC). Kind of experiment: Serial study of subjects with idiopathic dilated cardiomyopathy treated with β-blocking agents or placebo (LVEF / phenotype). It counts as in vivo, human. Conditions: for phenotype: baseline versus after 6 months of treatment; for left ventricular ejection fraction (LVEF): subjects with baseline IDC, 6-7 month period, change versus baseline. Here is the method: Dynamic expression profiling was performed in the intact human heart in 8 subjects with idiopathic dilated cardiomyopathy (IDC), on RNA extracted from RV septal endomyocardial biopsies performed at baseline and after 6 months treatment with β-blocking agents (n=6) or placebo (n=2). Affmetrix™ U95a GeneChips, which contain 12,625 gene sequences/chip, were used for expression profiling.
Endomyocardial biopsies were obtained during a 6-7 month period from eight subjects with baseline idiopathic dilated cardiomyopathy (IDC). Of these subjects, six were treated with the β-blocking agents carvedilol and metoprolol, and two were treated with placebo.
Biopsied samples obtained from these subjects were analyzed by quantitative reverse transcript polymerase chain reaction (QRT PCR), and the mRNAs obtained were further analyzed by Affymetrix Gene chip. Subjects with ideal substantial noise ratios were categorized in the low scaling factor group and those with substantial noise, which compromised quantitation, categorized in the high scaling factor group. Gene expression patterns were further compared between the seven subjects showing improved phenotypes and the one subject showing worsening phenotype. Of the four subjects in the low scaling group showing an improved LVEF, one had received placebo, one carvedilol, and one metoprolol, with the fourth subject treated with placebo showing a decrease LVEF. Of the four subjects in the high scaling group three received carvedilol and one received metoprolol.
Serial measurements of myocardial gene expression were performed on 4 subjects with […], at baseline and after 6 months of treatment with β-blocking agents (n=2, 1 carvediol and 1 metroprolol) or placebo (n=2). RNA was extracted from endomyocardial biopsy material, and expression profiling was performed via Affymetrix U95a GeneChips. […] In the three subjects who improved, a between-subject anaylsis was performed at baseline, and compared to a within-subject comparison between baseline and end of study.

Regarding `COc1ccccc1OCCNCC(O)COc1cccc2[nH]c3ccccc3c12` (stereo not shown) [carvedilol], the phenotype entry is reported as “improvement in phenotype” and the “left ventricular ejection fraction (LVEF)” value was “improved”.

With `COCCc1ccc(OCC(O)CNC(C)C)cc1` (stereo not shown) [metoprolol], the phenotype entry is recorded as “improvement in phenotype” and the “left ventricular ejection fraction (LVEF)” value is given as “improved”.
